Results reported in patent publication US12422438B2, “Means and methods for single molecule peptide sequencing” (VIB VZW, priority 2017, dated 2025).

How the values were obtained:
[1] = molecular target: T1, T. aquaticus aminopeptidase T (Thermus aquaticus, UniProt P23341); format: biochemical; details: 40° C.; for Km / kcat: PBS; for Km: enzyme 2.0625 μM, substrate 0.0625-2 mM, Lineweaver-Burke plot; for kcat: kcat=Vmax/[E]; for on-time (min) / on-time (s): calculated as 1/kcat
T1 construct: 6xHis (C); made in house; host or cells: E. coli BL21(DE3), pET24b(+)
T1 sequence (P23341 with tags, fused parts or gaps): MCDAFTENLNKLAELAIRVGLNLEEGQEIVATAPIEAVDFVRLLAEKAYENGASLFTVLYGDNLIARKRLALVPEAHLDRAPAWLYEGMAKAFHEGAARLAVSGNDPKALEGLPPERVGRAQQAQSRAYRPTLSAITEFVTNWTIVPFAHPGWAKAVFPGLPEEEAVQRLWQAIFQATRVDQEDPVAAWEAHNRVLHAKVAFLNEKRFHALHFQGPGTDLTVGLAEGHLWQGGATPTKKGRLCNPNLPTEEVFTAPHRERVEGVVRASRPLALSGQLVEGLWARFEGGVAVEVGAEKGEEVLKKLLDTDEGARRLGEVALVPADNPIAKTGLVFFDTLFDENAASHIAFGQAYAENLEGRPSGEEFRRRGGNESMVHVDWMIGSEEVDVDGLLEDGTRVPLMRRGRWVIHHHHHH
Procedure: The kinetic parameters from T. aquaticus aminopeptidase T for cleaving different amino acid substrates was determined with a p-nitroanilide assay. Substrates consist of an N-terminal amino acid with a p-nitroanilide attached to its C-terminus. Upon amino acid cleavage, the free nitroanilide can be monitored by measuring the absorbance at 405 nm. T. aquaticus aminopeptidase T as depicted in SEQ ID No 8 was added in a concentration of 2.0625 μM (in PBS) to different concentrations of amino acid p-nitroanilide substrate (0.0625, 0.125, 0.25, 0.5, 1 and 2 mM in PBS). Subsequently p-nitroanilide release was continuously measured at 40° C. with a FLUOstar Omega microplate reader (MBG LabTech). From this, the initial velocity of the reaction at each substrate concentration was derived (v0). For each amino acid, a Lineweaver-Burke plot was generated from which the reaction Vmax and enzyme-substrate KM was determined. The turnover number, kcat, was calculated from the Vmax and the enzyme concentration (kcat=Vmax/[E]). The enzyme on-time value was then calculated by taking the reciprocal from the kcat value. The “on-time” values as shown in Table 1 are calculated as 1/kcat and as such is the overall time needed for an enzyme solution on the peptide until catalysis occurs.
The assays were performed at 40° C. below the enzyme's temperature optimum. Working more closely to the optimal temperature of 70° C. speeds up the reaction speed (kcat and enzyme on-time). […] The results as shown here not only validate the utility of the aminopeptidase as disclosed herein but also underpin and substantiate the methods and uses disclosed in current application.

[2] = molecular target: T1, T. aquaticus aminopeptidase T; assay: Aminopeptidase assay with different amino acid p-nitroanilide substrates at 40° C. and 80° C.; format: biochemical; details: 2 h, PBS, substrate 1.5 mM
Procedure: FIG. 11. Aminopeptidase assay with different amino acid p-nitroanilide substrates. Enzyme and substrate (1.5 mM) were incubated for 2 h at 40° C. or 80° C. in PBS, after which the released p-nitroanilide was quantified by measuring the absorbance at 405 nm.
As described herein and in line with the invention described in current application, the activity differs between different amino acids. At 80° C., the panel of amino acid substrates can be roughly divided in fast-cleaved (L, M, Y, R, F) and slow-cleaved (D, P) substrates. However, at 40° C. it seems like the panel is divided in fast-cleaved (Y, R) and slow-cleaved (D, P), and substrates that lie in between (L, M, F). […] Finally, TagAPT is not only active in the p-nitroanilide assay. […] The N-terminal amino acid from peptides with proline at the second position is not easily cleaved since peptide bonds adjacent to the amino acid proline are resistant to cleavage by most peptidases (Iyver et al. 2015 FEBS Open Bio. 2015 Apr. 2; 5:292-302). In contrast to what Is stated in Minagawa et al (1988 Agricultural and Biological Chemistry 52:1755-1763) we show here that T. aquaticus aminopeptidase T can cleave N-terminal amino acids even when proline is at the second position. This surprising finding greatly enhances the generic use of Tag-APT in the method and uses disclosed in current application and in single molecule peptide sequencing in general.

[3] = Spontaneous Edman degradation (SPITC-induced cleavage) of amino acid p-nitroanilide substrates; details: 30 min at 40° C., 300 mM triethanolamine in 50% acetonitrile (pH 9)
Procedure: FIG. 16. Spontaneous Edman degradation of different amino acid p-nitroanilide substrates. A. Sulfophenyl isothiocyanate (SPITC, 15 mM) and substrate (1.5 mM) were incubated for 30 min at 40° C. in 300 mM triethanolamine in 50% ACN, after which the released p-nitroanilide was quantified by measuring the absorbance at 405 nm. B. Time-kinetic measurement of SPITC-induced amino acid p-nitroanilide substrate cleavage.
Importantly, this spontaneous cleavage activity is also observed under conditions that are not typically used during the cleavage step in the classic Edman degradation reaction. In classic Edman degradation. ITC coupling is achieved under mild alkaline conditions (pyridine, trimethylamine, N-methylpiperidine) and amino acid cleavage under acidic conditions (trifluoroacetic acid). Here both ITC coupling and amino acid cleavage is achieved under mild alkaline conditions (triethanolamine).

## C[C@H](N)C(=O)Nc1ccc([N+](=O)[O-])cc1 [Ala]
[1]
  Km: 736 µM
  kcat: 0.01167 s⁻¹
  on-time (min): 1.4 min
  on-time (s): 86 s

## NC(N)=NCCC[C@H](N)C(=O)Nc1ccc([N+](=O)[O-])cc1 [Arg]
[2]; 40° C.
  cleavage speed category of substrate: fast-cleaved
[2]; 80° C.
  cleavage speed category of substrate: fast-cleaved
[3]
  cleavage speed category of substrate (endpoint activity measurement): fast-cleaved
[1]
  Km: 415 µM
  kcat: 0.01638 s⁻¹
  on-time (min): 1.0 min
  on-time (s): 61 s

## N[C@@H](CC(=O)O)C(=O)Nc1ccc([N+](=O)[O-])cc1 [D]
[2]; 40° C.
  cleavage speed category of substrate: slow-cleaved
[2]; 80° C.
  cleavage speed category of substrate: slow-cleaved
[3]
  cleavage speed category of substrate (endpoint activity measurement): slow-cleaved

## N[C@@H](Cc1ccccc1)C(=O)Nc1ccc([N+](=O)[O-])cc1 [F]
[2]; 40° C.
  cleavage speed category of substrate: in between
[2]; 80° C.
  cleavage speed category of substrate: fast-cleaved
[3]
  cleavage speed category of substrate (endpoint activity measurement): fast-cleaved

## NCC(=O)Nc1ccc([N+](=O)[O-])cc1 [Gly]
[1]
  Km: 765 µM
  kcat: 0.00307 s⁻¹
  on-time (min): 5.4 min
  on-time (s): 326 s

## CC(C)C[C@H](N)C(=O)Nc1ccc([N+](=O)[O-])cc1 [Leu, L-leucine-p-nitroanilide]
[2]; 40° C.
  cleavage speed category of substrate: in between
[2]; 80° C.
  cleavage speed category of substrate: fast-cleaved
[3]
  cleavage speed category of substrate (endpoint activity measurement): fast-cleaved
[1]
  on-time (min): 6.5 min
  on-time (s): 390 s

## NCCCC[C@H](N)C(=O)Nc1ccc([N+](=O)[O-])cc1 [Lys]
[1]
  Km: 193 µM
  kcat: 0.00148 s⁻¹
  on-time (min): 11.3 min
  on-time (s): 677 s

## CSCC[C@H](N)C(=O)Nc1ccc([N+](=O)[O-])cc1 [Met]
[2]; 40° C.
  cleavage speed category of substrate: in between
[2]; 80° C.
  cleavage speed category of substrate: fast-cleaved
[3]
  cleavage speed category of substrate (endpoint activity measurement): fast-cleaved
[1]
  Km: 99 µM
  kcat: 0.00471 s⁻¹
  on-time (min): 3.5 min
  on-time (s): 212 s

## O=C(Nc1ccc([N+](=O)[O-])cc1)[C@@H]1CCCN1 [Pro]
[2]; 40° C.
  cleavage speed category of substrate: slow-cleaved
[2]; 80° C.
  cleavage speed category of substrate: slow-cleaved
[3]
  cleavage speed category of substrate (endpoint activity measurement): slow-cleaved
[1]
  Km: 546 µM
  kcat: 0.00198 s⁻¹
  on-time (min): 8.4 min
  on-time (s): 504 s

## N[C@@H](Cc1ccc(O)cc1)C(=O)Nc1ccc([N+](=O)[O-])cc1 [Tyr]
[2]; 40° C.
  cleavage speed category of substrate: fast-cleaved
[2]; 80° C.
  cleavage speed category of substrate: fast-cleaved
[3]
  cleavage speed category of substrate (endpoint activity measurement): fast-cleaved
[1]
  Km: 211 µM
  kcat: 0.00707 s⁻¹
  on-time (min): 2.4 min
  on-time (s): 142 s

## CC(C)[C@H](N)C(=O)Nc1ccc([N+](=O)[O-])cc1 [Val]
[1]
  Km: 192 µM
  kcat: 0.00138 s⁻¹
  on-time (min): 12.1 min
  on-time (s): 727 s
